What was measured:
Experiment in all cases: apparent dissociation constant (pKDapp, Kinobeads competition, Cheng-Prusoff corrected) (-log10 M); higher = tighter binding
[1] = target: ACVR1B (UniProt P36896); conditions: affinity matrix / lysate: Kinobeads, mixed HEK293/K-562/placenta lysate
[2] = target: ARAF (UniProt P10398); conditions: affinity matrix / lysate: Kinobeads, mixed HEK293/K-562/placenta lysate
[3] = target: AURKA (UniProt O14965); conditions: affinity matrix / lysate: Kinobeads, mixed HEK293/K-562/placenta lysate
[4] = target: CAMKK1 (UniProt Q8N5S9); conditions: affinity matrix / lysate: Kinobeads, mixed HEK293/K-562/placenta lysate
[5] = target: CDC2 (UniProt P06493); conditions: affinity matrix / lysate: Kinobeads, mixed HEK293/K-562/placenta lysate
[6] = target: CLK1 (UniProt P49759); conditions: affinity matrix / lysate: Kinobeads, mixed HEK293/K-562/placenta lysate
[7] = target: CSF1R (UniProt P07333); conditions: affinity matrix / lysate: Kinobeads, mixed HEK293/K-562/placenta lysate
[8] = target: DDR1 (UniProt Q08345); conditions: affinity matrix / lysate: Kinobeads, mixed HEK293/K-562/placenta lysate
[9] = target: DSTYK (UniProt Q6XUX3); conditions: affinity matrix / lysate: Kinobeads, mixed HEK293/K-562/placenta lysate
[10] = target: DYRK1A (UniProt Q13627); conditions: affinity matrix / lysate: Kinobeads, mixed HEK293/K-562/placenta lysate
[11] = target: FYN (UniProt P06241); conditions: affinity matrix / lysate: Kinobeads, mixed HEK293/K-562/placenta lysate
[12] = target: IKBKB (UniProt O14920); conditions: affinity matrix / lysate: Kinobeads, mixed HEK293/K-562/placenta lysate
[13] = target: ILK (UniProt Q13418); conditions: affinity matrix / lysate: Kinobeads, mixed HEK293/K-562/placenta lysate
[14] = target: KIAA1804 (UniProt Q5TCX8); conditions: affinity matrix / lysate: Kinobeads, mixed HEK293/K-562/placenta lysate
[15] = target: KSR1 (UniProt Q8IVT5); conditions: affinity matrix / lysate: Kinobeads, mixed HEK293/K-562/placenta lysate
[16] = target: LIMK2 (UniProt P53671); conditions: affinity matrix / lysate: Kinobeads, mixed HEK293/K-562/placenta lysate
[17] = target: MAP2K4 (UniProt P45985); conditions: affinity matrix / lysate: Kinobeads, mixed HEK293/K-562/placenta lysate
[18] = target: MAP3K15 (UniProt Q6ZN16); conditions: affinity matrix / lysate: Kinobeads, mixed HEK293/K-562/placenta lysate
[19] = target: MAP3K4 (UniProt Q9Y6R4); conditions: affinity matrix / lysate: Kinobeads, mixed HEK293/K-562/placenta lysate
[20] = target: MAP3K6 (UniProt O95382); conditions: affinity matrix / lysate: Kinobeads, mixed HEK293/K-562/placenta lysate
[21] = target: MKNK2 (UniProt Q9HBH9); conditions: affinity matrix / lysate: Kinobeads, mixed HEK293/K-562/placenta lysate
[22] = target: MYLK3 (UniProt Q32MK0); conditions: affinity matrix / lysate: Kinobeads, mixed HEK293/K-562/placenta lysate
[23] = target: PDGFRA (UniProt P16234); conditions: affinity matrix / lysate: Kinobeads, mixed HEK293/K-562/placenta lysate
[24] = target: PIK3CG (UniProt P48736); conditions: affinity matrix / lysate: Lipid Kinobeads, mixed HeLa/Jurkat/K-562 lysate
[25] = target: PIP4K2C (UniProt Q8TBX8); conditions: affinity matrix / lysate: Kinobeads, mixed HEK293/K-562/placenta lysate
[26] = target: PKN3 (UniProt Q6P5Z2); conditions: affinity matrix / lysate: Kinobeads, mixed HEK293/K-562/placenta lysate
[27] = target: PRKCQ (UniProt Q04759); conditions: affinity matrix / lysate: Kinobeads, mixed HEK293/K-562/placenta lysate
[28] = target: PRKCZ (UniProt Q05513); conditions: affinity matrix / lysate: Kinobeads, mixed HEK293/K-562/placenta lysate
[29] = target: PRKD1 (UniProt Q15139); conditions: affinity matrix / lysate: Kinobeads, mixed HEK293/K-562/placenta lysate
[30] = target: PRKG1 (UniProt Q13976); conditions: affinity matrix / lysate: Kinobeads, mixed HEK293/K-562/placenta lysate
[31] = target: STK3 (UniProt Q13188); conditions: affinity matrix / lysate: Kinobeads, mixed HEK293/K-562/placenta lysate
[32] = target: TNK2 (UniProt Q07912); conditions: affinity matrix / lysate: Kinobeads, mixed HEK293/K-562/placenta lysate
[33] = target: TP53RK (UniProt Q96S44); conditions: affinity matrix / lysate: Kinobeads, mixed HEK293/K-562/placenta lysate

Measured: apparent dissociation constant (-log10 M)

STK3, sequence (Q13188 whole entry): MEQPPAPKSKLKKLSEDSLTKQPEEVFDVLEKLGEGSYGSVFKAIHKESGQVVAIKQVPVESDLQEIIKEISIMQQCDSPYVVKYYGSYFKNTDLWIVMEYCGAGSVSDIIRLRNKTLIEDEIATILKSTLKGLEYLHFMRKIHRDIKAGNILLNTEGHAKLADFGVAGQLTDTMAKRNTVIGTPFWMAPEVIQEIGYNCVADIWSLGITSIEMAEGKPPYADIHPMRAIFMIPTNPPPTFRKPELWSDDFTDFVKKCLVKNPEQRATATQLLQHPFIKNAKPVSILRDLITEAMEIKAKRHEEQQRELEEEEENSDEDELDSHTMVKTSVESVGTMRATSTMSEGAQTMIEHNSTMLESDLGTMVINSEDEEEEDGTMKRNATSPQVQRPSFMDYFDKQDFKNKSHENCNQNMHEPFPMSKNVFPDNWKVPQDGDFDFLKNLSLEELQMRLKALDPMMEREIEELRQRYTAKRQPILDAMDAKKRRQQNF
MAP3K15, sequence (Q6ZN16 whole entry): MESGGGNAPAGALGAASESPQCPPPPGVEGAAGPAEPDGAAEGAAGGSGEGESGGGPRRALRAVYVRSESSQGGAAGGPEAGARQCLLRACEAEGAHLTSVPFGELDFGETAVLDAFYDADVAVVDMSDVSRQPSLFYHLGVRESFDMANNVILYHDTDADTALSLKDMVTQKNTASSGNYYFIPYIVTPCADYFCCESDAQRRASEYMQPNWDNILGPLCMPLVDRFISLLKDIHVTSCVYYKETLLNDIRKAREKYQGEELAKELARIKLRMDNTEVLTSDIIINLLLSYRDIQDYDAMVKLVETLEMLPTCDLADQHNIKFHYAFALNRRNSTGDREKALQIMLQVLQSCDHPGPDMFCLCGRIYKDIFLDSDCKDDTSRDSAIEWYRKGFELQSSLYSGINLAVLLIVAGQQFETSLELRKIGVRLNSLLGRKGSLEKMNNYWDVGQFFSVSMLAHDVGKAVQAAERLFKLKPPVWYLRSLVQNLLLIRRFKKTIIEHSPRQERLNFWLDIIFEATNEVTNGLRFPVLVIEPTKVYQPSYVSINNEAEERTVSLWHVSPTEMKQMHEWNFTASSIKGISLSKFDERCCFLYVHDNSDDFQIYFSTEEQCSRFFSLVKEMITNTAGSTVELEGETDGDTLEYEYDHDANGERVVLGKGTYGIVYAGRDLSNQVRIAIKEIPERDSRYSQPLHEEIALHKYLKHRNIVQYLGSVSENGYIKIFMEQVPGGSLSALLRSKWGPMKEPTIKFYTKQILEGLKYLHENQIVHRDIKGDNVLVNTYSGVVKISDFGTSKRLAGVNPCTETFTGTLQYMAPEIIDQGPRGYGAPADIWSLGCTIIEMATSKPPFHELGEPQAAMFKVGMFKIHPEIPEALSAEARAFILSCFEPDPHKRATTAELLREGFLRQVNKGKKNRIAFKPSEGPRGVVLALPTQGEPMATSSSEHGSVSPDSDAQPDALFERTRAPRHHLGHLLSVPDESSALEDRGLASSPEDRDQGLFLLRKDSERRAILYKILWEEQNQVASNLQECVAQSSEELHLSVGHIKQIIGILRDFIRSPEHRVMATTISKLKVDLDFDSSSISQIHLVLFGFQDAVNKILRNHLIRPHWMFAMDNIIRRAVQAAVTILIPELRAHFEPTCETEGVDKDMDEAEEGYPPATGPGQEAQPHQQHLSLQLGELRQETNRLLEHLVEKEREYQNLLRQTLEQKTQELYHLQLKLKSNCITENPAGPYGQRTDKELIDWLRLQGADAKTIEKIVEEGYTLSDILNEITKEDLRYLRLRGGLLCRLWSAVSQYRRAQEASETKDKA
MKNK2, sequence (Q9HBH9 whole entry, looked up): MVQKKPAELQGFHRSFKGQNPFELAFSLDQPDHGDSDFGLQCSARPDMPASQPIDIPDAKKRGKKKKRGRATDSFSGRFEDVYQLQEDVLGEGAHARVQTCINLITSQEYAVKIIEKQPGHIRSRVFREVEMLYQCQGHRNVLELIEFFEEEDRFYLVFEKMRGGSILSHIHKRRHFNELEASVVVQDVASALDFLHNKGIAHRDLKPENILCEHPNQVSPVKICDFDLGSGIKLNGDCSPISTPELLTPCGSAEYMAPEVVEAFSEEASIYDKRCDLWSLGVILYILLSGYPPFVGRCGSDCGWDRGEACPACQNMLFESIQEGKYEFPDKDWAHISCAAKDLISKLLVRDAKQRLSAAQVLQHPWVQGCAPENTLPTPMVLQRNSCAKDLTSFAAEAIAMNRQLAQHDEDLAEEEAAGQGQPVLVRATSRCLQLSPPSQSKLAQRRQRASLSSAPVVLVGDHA
ARAF, sequence (P10398 whole entry): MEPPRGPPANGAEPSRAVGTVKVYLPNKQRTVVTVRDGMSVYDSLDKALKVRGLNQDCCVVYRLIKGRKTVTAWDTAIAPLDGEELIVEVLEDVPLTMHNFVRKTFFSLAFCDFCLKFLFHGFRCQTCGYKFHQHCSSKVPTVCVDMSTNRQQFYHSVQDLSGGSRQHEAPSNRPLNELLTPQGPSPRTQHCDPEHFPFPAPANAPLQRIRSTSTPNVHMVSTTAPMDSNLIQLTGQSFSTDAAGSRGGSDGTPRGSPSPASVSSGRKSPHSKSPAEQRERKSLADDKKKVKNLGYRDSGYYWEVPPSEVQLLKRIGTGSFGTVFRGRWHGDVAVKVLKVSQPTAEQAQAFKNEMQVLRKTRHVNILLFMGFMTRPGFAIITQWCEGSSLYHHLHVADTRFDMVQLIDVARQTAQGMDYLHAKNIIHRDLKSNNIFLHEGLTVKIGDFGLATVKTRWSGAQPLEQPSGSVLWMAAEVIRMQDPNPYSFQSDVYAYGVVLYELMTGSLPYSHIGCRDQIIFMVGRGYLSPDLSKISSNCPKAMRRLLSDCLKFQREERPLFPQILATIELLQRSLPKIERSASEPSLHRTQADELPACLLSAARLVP
DSTYK, sequence (Q6XUX3 whole entry): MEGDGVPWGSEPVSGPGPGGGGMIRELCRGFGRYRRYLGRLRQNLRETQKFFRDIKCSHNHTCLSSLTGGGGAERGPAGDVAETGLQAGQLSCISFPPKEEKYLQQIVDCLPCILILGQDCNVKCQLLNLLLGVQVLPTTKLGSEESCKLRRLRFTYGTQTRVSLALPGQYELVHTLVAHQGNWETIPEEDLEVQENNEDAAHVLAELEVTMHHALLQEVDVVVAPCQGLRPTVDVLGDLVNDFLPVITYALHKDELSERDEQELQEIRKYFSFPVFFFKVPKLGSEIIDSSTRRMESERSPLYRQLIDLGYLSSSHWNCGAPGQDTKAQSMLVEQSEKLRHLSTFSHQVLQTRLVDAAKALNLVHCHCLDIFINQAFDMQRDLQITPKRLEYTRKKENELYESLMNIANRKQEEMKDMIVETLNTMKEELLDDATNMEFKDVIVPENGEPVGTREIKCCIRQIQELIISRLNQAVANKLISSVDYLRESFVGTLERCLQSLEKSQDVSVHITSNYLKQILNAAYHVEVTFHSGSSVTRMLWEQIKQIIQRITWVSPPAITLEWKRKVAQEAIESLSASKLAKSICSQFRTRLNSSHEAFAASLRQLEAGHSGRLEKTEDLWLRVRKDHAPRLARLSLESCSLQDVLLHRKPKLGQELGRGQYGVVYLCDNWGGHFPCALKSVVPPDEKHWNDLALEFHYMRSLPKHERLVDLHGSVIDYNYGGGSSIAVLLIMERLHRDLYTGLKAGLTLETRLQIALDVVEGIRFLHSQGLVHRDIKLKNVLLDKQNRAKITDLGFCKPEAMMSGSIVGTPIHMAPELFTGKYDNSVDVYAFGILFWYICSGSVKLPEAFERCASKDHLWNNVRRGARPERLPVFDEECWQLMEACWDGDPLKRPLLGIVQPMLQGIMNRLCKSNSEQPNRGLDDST
MYLK3, sequence (Q32MK0 whole entry): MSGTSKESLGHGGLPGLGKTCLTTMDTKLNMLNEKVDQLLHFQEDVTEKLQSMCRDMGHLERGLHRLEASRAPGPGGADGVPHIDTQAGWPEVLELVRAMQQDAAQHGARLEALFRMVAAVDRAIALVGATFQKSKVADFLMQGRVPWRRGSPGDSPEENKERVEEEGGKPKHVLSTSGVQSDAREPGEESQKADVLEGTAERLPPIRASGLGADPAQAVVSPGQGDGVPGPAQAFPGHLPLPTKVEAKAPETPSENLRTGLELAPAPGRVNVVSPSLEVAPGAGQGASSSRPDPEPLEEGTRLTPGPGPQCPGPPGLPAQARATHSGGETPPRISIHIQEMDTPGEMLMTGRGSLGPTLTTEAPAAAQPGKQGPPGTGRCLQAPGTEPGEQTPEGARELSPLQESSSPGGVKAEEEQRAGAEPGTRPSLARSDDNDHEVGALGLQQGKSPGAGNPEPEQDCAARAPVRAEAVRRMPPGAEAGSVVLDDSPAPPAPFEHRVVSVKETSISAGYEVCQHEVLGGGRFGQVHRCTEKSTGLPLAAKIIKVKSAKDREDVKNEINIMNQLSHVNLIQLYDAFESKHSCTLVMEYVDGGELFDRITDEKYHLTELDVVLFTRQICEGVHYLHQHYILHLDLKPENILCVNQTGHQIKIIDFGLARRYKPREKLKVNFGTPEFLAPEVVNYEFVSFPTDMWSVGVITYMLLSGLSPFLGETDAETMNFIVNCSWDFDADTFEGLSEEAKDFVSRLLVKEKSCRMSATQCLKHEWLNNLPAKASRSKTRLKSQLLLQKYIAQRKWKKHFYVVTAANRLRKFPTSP
ILK, sequence (Q13418 whole entry): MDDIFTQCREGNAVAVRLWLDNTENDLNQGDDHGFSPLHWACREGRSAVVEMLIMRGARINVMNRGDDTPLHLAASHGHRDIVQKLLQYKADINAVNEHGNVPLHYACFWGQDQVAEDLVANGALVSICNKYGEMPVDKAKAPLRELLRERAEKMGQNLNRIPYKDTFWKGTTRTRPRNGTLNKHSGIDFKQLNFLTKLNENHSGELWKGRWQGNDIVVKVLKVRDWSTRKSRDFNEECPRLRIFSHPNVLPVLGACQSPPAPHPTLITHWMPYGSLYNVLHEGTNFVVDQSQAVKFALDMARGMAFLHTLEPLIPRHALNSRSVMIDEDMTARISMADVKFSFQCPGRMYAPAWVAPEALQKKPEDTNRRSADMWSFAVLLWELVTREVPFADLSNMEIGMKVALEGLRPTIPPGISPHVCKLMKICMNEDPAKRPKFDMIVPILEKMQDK

COc1ccc(-c2ccc3c(N4CCOC[C@@H]4C)nc(N4CCOC[C@@H]4C)nc3n2)cc1CO [AZD8055]
< 6: all assays above

CCNC(=O)Nc1ccc(-c2nc(N3CCOC[C@@H]3C)c3c(n2)C(C)(C)S(=O)(=O)C3)cc1 [CZ415]
< 6: all assays above

Source: the supplement of paper PMC6315032
